One experiment relates to E. faecalis 0609. The experiment is described as follows: MIC assay, clinical isolate. The class given is cell-based. The note with it: Enterococcus faecalis. On the procedure: (§1) MRSA (S. aureus Mu50, S. aureus Newman, S. aureus USA400, S. aureus USA300 LAC, S. aureus USA300) were obtained from Shanghai Institute of Materia Medica, Chinese Academy of Sciences. All clinically isolated Gram-positive bacteria used in this study were isolated from patients with various infections, different ages and sexes in the Shanghai Ruijin Rehabilitation Hospital. All strains were cultured in Luria-Bertani (LB) medium at 37 °C before use.
(§2) Bacteria were cultured in LB medium at 37 °C for 10 h, and then the bacterial suspension was diluted in Mueller–Hinton (MH) medium to a cell density of 2 × 10^5 colony forming units (CFU)/mL as the working suspension. The poly(Naeg)20 was serially diluted by MH medium in a 96-well plate, and an equal volume of bacterial suspension was added into each well. The final concentration of the poly(Naeg)20 was ranging from 200 to 1.56 μg/mL, and the plates were incubated at 37 °C for 9 h. Wells with inoculum and no polymer were used as the positive control; wells with only MH medium were used as the blank. The optical density (OD) in each well was measured on a Molecular Devices SpectraMax M2 precision microplate reader. The percentage of bacteria growth was calculated from1 %cellgrowth=A600polymer-A600blank/A600control-A600blank×100
(§3) The test was independently repeated at least three times.

The test system of a further experiment is E. faecalis 2305. The experiment is described as follows: MIC assay, clinical isolate. The following applies: Enterococcus faecalis. The class given is cell-based. The method, then: as §1, §2, §3
In the next experiment the test system is E. faecium 0502. The experiment is described as follows: MIC assay, clinical isolate. The class given is cell-based. The following applies: Enterococcus faecium; clinical isolate E. faecium 0502; read-out: MIC. The method, then:
as §1, §2, §3

A further experiment concerns E. faecium 0609. The experiment is described as follows: MIC assay, clinical isolate. The note with it: Enterococcus faecium; clinical isolate E. faecium 0609; read-out: MIC. The class given is cell-based. The method, then: as §1, §2, §3
The next experiment has as its system E. faecium 0610. The experiment is described as follows: MIC assay, clinical isolate. The note with it: Enterococcus faecium; clinical isolate E. faecium 0610; read-out: MIC. The class given is cell-based. The method, then:
as §1, §2, §3

A further experiment has as its system E. faecium 1205. The experiment is described as follows: MIC assay, clinical isolate. The class given is cell-based. The note with it: Enterococcus faecium; clinical isolate E. faecium 1205; read-out: MIC. On the procedure:
as §1, §2, §3

In another experiment the test system is E. faecium 2504. The experiment is described as follows: MIC assay, clinical isolate. The class given is cell-based. The following applies: Enterococcus faecium; clinical isolate E. faecium 2504; read-out: MIC. On the procedure: as §1, §2, §3
Another experiment deals with S. agalactiae 0613. The experiment is described as follows: MIC assay, clinical isolate. The class given is cell-based. The following applies: Streptococcus agalactiae; clinical isolate S. agalactiae 0613; read-out: MIC. The method, then:
as §1, §2, §3

In another experiment the test system is S. aureus 2202. The experiment is described as follows: MIC assay, clinical isolate. The class given is cell-based. The note with it: Staphylococcus aureus; clinical isolate S. aureus 2202; read-out: MIC. The method, then: as §1, §2, §3
The test system of another experiment is S. aureus 2802. The experiment is described as follows: MIC assay, clinical isolate. The class given is cell-based. The note with it: Staphylococcus aureus; clinical isolate S. aureus 2802; read-out: MIC. On the procedure:
as §1, §2, §3

The test system of a further experiment is S. aureus 2902. The experiment is described as follows: MIC assay, clinical isolate. The note with it: Staphylococcus aureus; clinical isolate S. aureus 2902; read-out: MIC. The class given is cell-based. The method, then:
as §1, §2, §3

For the next experiment, the system named is S. aureus 2904. The experiment is described as follows: MIC assay, clinical isolate. The class given is cell-based. The following applies: Staphylococcus aureus; clinical isolate S. aureus 2904; read-out: MIC. On the procedure:
as §1, §2, §3

The subject of the next experiment is S. epidermidis 0501. The experiment is described as follows: MIC assay, clinical isolate. The class given is cell-based. The following applies: Staphylococcus epidermidis; clinical isolate S. epidermidis 0501; read-out: MIC. The method, then:
as §1, §2, §3

Another experiment has as its system S. epidermidis 9397. The experiment is described as follows: MIC assay, clinical isolate. The note with it: Staphylococcus epidermidis; clinical isolate S. epidermidis 9397; read-out: MIC. The class given is cell-based. On the procedure: as §1, §2, §3
The test system of another experiment is S. haemolyticus 0202. The experiment is described as follows: MIC assay, clinical isolate. The class given is cell-based. The note with it: Staphylococcus haemolyticus; clinical isolate S. haemolyticus 0202; read-out: MIC. The method, then: as §1, §2, §3
The next experiment deals with S. haemolyticus 1107. The experiment is described as follows: MIC assay, clinical isolate. The class given is cell-based. The note with it: Staphylococcus haemolyticus; clinical isolate S. haemolyticus 1107; read-out: MIC. On the procedure: as §1, §2, §3
A further experiment concerns S. haemolyticus 1303. The experiment is described as follows: MIC assay, clinical isolate. The class given is cell-based. The note with it: Staphylococcus haemolyticus; clinical isolate S. haemolyticus 1303; read-out: MIC. The method, then: as §1, §2, §3
A further experiment relates to L. monocytogenes 1001. The experiment is described as follows: MIC assay, clinical isolate. The class given is cell-based, Listeria monocytogene. The following applies: Listeria monocytogenes. The method, then: as §1, §2, §3
Experiment [1] relates to S. aureus ATCC6538. The class given is cell-based, Staphylococcus aureus. The following applies: after 375 passages. The method, then: The antimicrobial-resistance test was conducted according to the previously reported method with slight modification. […] An aliquot of 2.5 μL of the mixture was sampled and diluted 400-fold in LB medium for a new cell-drug incubation cycle. The above cycle was repeated every 24 h. […] Generation of bacteria growth was calculated from incubating time and bacteria growth kinetics described below.

The subject of experiment [2] is S. aureus ATCC6538. The experiment is described as follows: Bacterial killing kinetics. The class given is cell-based, Staphylococcus aureus. The note with it: 2×MBC (Figure S40).
In experiment [3] the test system is S. aureus USA300 biofilm formation. The experiment is described as follows: Inhibition study on biofilm formation. The class given is cell-based, Staphylococcus aureus. On the procedure:
The plate was incubated at 37 °C for 24 h, and then the culture medium was removed, washed with PBS once, followed by adding 100 µL MTT solution (0.5 mg/mL) into the corresponding well. After further incubation at 37 °C for 4 h in the dark, the MTT solution was removed. An aliquot of 100 μL DMSO was added to each well to solubilize the purple solid and then the OD value was collected at 570 nm on a microplate reader. Wells containing inoculum and without antibacterial agents were used as the positive control; wells containing only MH medium were used as the blank. The percentage of surviving cells within biofilm was calculated from4 %cellviability=A570polymer-A570blank/A570control-A570blank×100
as §3

Experiment [4] concerns S. aureus USA300 mature biofilm. The experiment is described as follows: Activity against mature biofilm. The class given is cell-based, Staphylococcus aureus. The note with it: for Biofilm survival(%): norfloxacin, r4-r9 = 64, 128, 256, 512, 1024, 2048 MIC. On the procedure:
The plate was incubated at 37 °C for 24 h to allow biofilm formation. […] Then MTT assay was used to determine the biofilm viability. Wells containing inoculum and without antibacterial agents were used as the positive control; wells containing only MH medium were used as the blank. The percentage of surviving cells within biofilm was calculated from5 %cellviability=A570polymer-A570blank/A570control-A570blank×100
as §3

Where [5] appears, read: clinical isolate L. monocytogenes 1001, read-out: MIC.
Where [6] appears, read: clinical isolate E. faecalis 2305, read-out: MIC.

SMILES strings stand for the structures. Values after ≈ are worked out from the molar mass of the structure shown. Values joined by “and” are separate entries in the source; they are usually repeats but may differ in a detail not shown here. Identical values can stand only once. Like-named read-outs stand apart in the source and are kept apart here.

By MIC is commonly meant the least concentration at which growth counts as inhibited. Regarding `CC1(C)S[C@@H]2[C@H](NC(=O)[C@H](N)c3ccccc3)C(=O)N2[C@H]1C(=O)O` [Ampicillin], the MIC against E. faecalis 0609 (0609) is 3.13 µg/mL (≈ 8.96 µM); against E. faecalis 2305 (2305), 12.5 µg/mL (≈ 35.8 µM); in the experiment with E. faecium 0502, above 200 µg/mL; in the experiment with E. faecium 0609, above 200 µg/mL; in the experiment on E. faecium 0610 it was above 200 µg/mL; with E. faecium 1205, above 200 µg/mL. Also, the minimum inhibitory concentration (MIC) was determined as 100 µg/mL (≈ 286 µM) with E. faecium 2504; 0.39 µg/mL (≈ 1.12 µM) with S. agalactiae 0613; 1.56 µg/mL (≈ 4.46 µM) in the experiment on S. aureus 2202; 25 µg/mL (≈ 71.5 µM) in the experiment on S. aureus 2802; 25 µg/mL (≈ 71.5 µM) in the experiment with S. aureus 2902; 25 µg/mL (≈ 71.5 µM) in the experiment on S. aureus 2904. In addition, the MIC with S. epidermidis 0501 was 6.25 µg/mL (≈ 17.9 µM); with S. epidermidis 9397 it was 0.39 µg/mL (≈ 1.12 µM); in the experiment with S. haemolyticus 0202, 200 µg/mL (≈ 572 µM); with S. haemolyticus 1107, above 200 µg/mL; with S. haemolyticus 1303, 200 µg/mL (≈ 572 µM); in the experiment on L. monocytogenes 1001 (setting [5]) it was 1.56 µg/mL (≈ 4.46 µM).

In the case of `COc1cccc(OC)c1C(=O)N[C@@H]1C(=O)N2[C@@H]1SC(C)(C)[C@@H]2C(=O)O` [Methicillin], the MIC in the experiment with E. faecalis 0609 (clinical isolate E. faecalis 0609, read-out: MIC) was 50 µg/mL (≈ 131 µM); in the experiment on E. faecalis 2305 (setting [6]) it was above 200 µg/mL; in the experiment on E. faecium 0502, above 200 µg/mL; in the experiment on E. faecium 0609 it was above 200 µg/mL; with E. faecium 0610, above 200 µg/mL; with E. faecium 1205, above 200 µg/mL. The minimum inhibitory concentration (MIC) is above 200 µg/mL in the experiment on E. faecium 2504; 1.56 µg/mL (≈ 4.1 µM) in the experiment with S. agalactiae 0613; 3.13 µg/mL (≈ 8.23 µM) in the experiment on S. aureus 2202; 6.25 µg/mL (≈ 16.4 µM) in the experiment with S. aureus 2802; 12.5 µg/mL (≈ 32.9 µM) in the experiment with S. aureus 2902; 6.25 µg/mL (≈ 16.4 µM) in the experiment on S. aureus 2904. For the same compound, the MIC is 12.5 µg/mL (≈ 32.9 µM) with S. epidermidis 0501; 1.56 µg/mL (≈ 4.1 µM) in the experiment with S. epidermidis 9397; 200 µg/mL (≈ 526 µM) in the experiment with S. haemolyticus 0202; above 200 µg/mL with S. haemolyticus 1107; above 200 µg/mL in the experiment on S. haemolyticus 1303; 25 µg/mL (≈ 65.7 µM) in the experiment on L. monocytogenes 1001 (setting [5]).

As to `CCn1cc(C(=O)O)c(=O)c2cc(F)c(N3CCNCC3)cc21` [Norfloxacin], the minimal inhibitory concentration (MIC) in the experiment on E. faecalis 0609 (0609) was 1.56 µg/mL (≈ 4.89 µM); in the experiment with E. faecalis 2305 (setting [6]), 25 µg/mL (≈ 78.3 µM); in the experiment on E. faecium 0502, 100 µg/mL (≈ 313 µM); with E. faecium 0609, above 200 µg/mL; with E. faecium 0610, 200 µg/mL (≈ 626 µM); in the experiment with E. faecium 1205, 100 µg/mL (≈ 313 µM). The MIC with E. faecium 2504 was 200 µg/mL (≈ 626 µM); in the experiment with S. agalactiae 0613, 25 µg/mL (≈ 78.3 µM); in the experiment with S. aureus 2202, 50 µg/mL (≈ 157 µM); in the experiment with S. aureus 2802, 200 µg/mL (≈ 626 µM); with S. aureus 2902, 25 µg/mL (≈ 78.3 µM); in the experiment on S. aureus 2904 it was 200 µg/mL (≈ 626 µM). Besides, the MIC in the experiment with S. epidermidis 0501 worked out at 0.2 µg/mL (≈ 0.626 µM); in the experiment on S. epidermidis 9397, 0.2 µg/mL (≈ 0.626 µM); in the experiment with S. haemolyticus 0202 it was 100 µg/mL (≈ 313 µM); with S. haemolyticus 1107 it was 100 µg/mL (≈ 313 µM); with S. haemolyticus 1303, 25 µg/mL (≈ 78.3 µM); with L. monocytogenes 1001 (1001) it was 1.56 µg/mL (≈ 4.89 µM). For the same compound, in the experiment on S. aureus ATCC6538 [1], the “increase of MBC” value was 1024 times. For the same compound, the “time to kill 90% of S. aureus” value in the experiment with S. aureus ATCC6538 [2] is 2 to 3 h. Also, the “concentration required to inhibit the formation of S. aureus biofilm” value in [3] came out at 64 × MIC. Besides, in experiment [4], the “concentration that eradicates mature biofilms of S. aureus” value was above 2048 × MIC. Besides, the “Biofilm survival(%)” value was 91.6463% and 85.7695% and 83.8544% and 89.6297% and 72.4394% and 55.1024% in experiment [4] (replicate 1); 89.0013% and 75.6713% and 82.9402% and 81.0138% and 70.6748% and 61.6339% in experiment [4] (replicate 2); 91.3528% and 81.8867% and 88.4821% and 86.774% and 64.2036% and 56.0543% in experiment [4] (replicate 3).

Regarding `C[C@H]1COc2c(N3CCN(C)CC3)c(F)cc3c(=O)c(C(=O)O)cn1c23` [levofloxacin], in the experiment with S. aureus ATCC6538 [2], the “time to kill 90% of S. aureus” value fell in the range of 2 to 3 h.

Source of the values: paper PMC8501045, “Addressing MRSA infection and antibacterial resistance with peptoid polymers” (Nature Communications, 2021).
